Experimental data: paper PMC11259535 (ACS chemical biology, 2024)
Where a chain is given by its changes, count along the chain named.

Assays:
[1] = biological target: T1, succinyl-CoA:glutarate-CoA transferase (SUGCT) (Homo sapiens, UniProt Q9HAC7, Q255A/K256A); assay: co-crystal structure; type: binding
T1 sequence (Q9HAC7 31-438 Q255A/K256A): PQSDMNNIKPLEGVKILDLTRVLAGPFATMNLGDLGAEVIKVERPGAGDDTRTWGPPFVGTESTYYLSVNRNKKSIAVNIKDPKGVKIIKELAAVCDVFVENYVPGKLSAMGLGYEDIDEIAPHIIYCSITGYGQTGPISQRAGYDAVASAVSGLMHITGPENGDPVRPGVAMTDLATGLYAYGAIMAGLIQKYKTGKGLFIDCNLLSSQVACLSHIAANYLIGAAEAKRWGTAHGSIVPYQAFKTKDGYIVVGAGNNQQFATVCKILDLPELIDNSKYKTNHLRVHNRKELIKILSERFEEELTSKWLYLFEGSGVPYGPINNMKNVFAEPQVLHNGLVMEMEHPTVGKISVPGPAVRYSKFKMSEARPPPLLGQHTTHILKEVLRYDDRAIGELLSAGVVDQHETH

[2] = substrate: CC(C)(COP(=O)(O)OP(=O)(O)OC[C@H]1O[C@@H](n2cnc3c(N)ncnc32)[C@H](O)[C@@H]1OP(=O)(O)O)[C@@H](O)C(=O)NCCC(=O)NCCSC(=O)CCCC(=O)O; assay: saturation kinetics; type: biochemical, Homo sapiens

CCCCc1nc(Cl)c(C(=O)O)n1Cc1ccc(-c2ccccc2-c2nn[nH]n2)cc1 [losartan carboxylic acid]
co-crystal structure [1]: There was unambiguous density for losartan carboxylic acid in one of the four active sites

B1: succinyl-CoA:glutarate-CoA transferase (SUGCT) (Homo sapiens) (protein)
chain: T1 sequence (Q9HAC7 31-438 Q255A/K256A) with A225Q, A226K
Km [2]: 17.3 µM
